Measured values taken from patent US10759799B2, “Indazole containing macrocycles and therapeutic uses thereof” (Samumed, LLC, priority 2018, dated 2020).

Assays:
[1] = tested on: primary human fibroblasts derived from IPF patients (LL29 cells); assay: Inhibition of TGF-β1 induced fibrosis (αSMA staining) in LL29 fibroblasts; format: cell-based; settings: Fibroblast; for EC50: 96 h, LL29 cells, TGF-β1 20 ng/mL, 4 days, % αSMA positive cells
Procedure: Representative compounds were screened using primary human fibroblasts (derived from IPF patients) treated with TGF-β1 to determine their ability to inhibit the fibrotic process.
LL29 cells were plated at 1,500 cells/well in 70 μL/well F12 medium supplemented with 1% Fetal Bovine Serum. […] Wells treated with TGF-β1 and containing DMSO were used as positive control, and cells with only DMSO were negative control. […] Following incubation for 4 days, SYTOX green nucleic acid stain (Life Technologies [Thermo Fisher Scientific]) was added to the wells at a final concentration of 1 μM and incubated at room temperature for 30 min.

[2] = tested on: IL-6; assay: IL-6 inhibition in LPS-stimulated human PBMCs (HTRF); format: cell-based; settings: PBMC; for EC50: huPBMCs, LPS 50 ng/mL, 22 hours, IL-6 HTRF; for inhibition at 10 µM: read-out: percent inhibition at 10 μM
Procedure: Fresh Normal PB MNC (Catalog # PB001, AllCells, Alameda, Calif.) were shipped overnight at 4° C. and resuspended in Roswell Park Memorial Institute (RPMI) 1640 Medium, with GlutaMAX Supplement (Catalog #61870127, ThermoFisher Scientific, Waltham, Mass.) supplemented with 1% Penicillin-Streptomycin (Catalog #15140163, ThermoFisher Scientific, Waltham, Mass.) and 1% fetal bovine serum (FBS) (Catalog #16140089, ThermoFisher Scientific, Waltham, Mass.) assay media.
Compound Screening: Fresh normal human peripheral blood mononuclear cells (huPBMCs) were resuspended in 1% FBS-RPMI assay media with 1% Penicillin-Streptomycin 1% to a cell concentration of 1×10e6 cells/mL. […] 50 ng/mL of Lipopolysaccharides from Escherichia coli 0111:B4 (Catalog # L5293-2ML, Sigma-Aldrich, St. Louis, Mo.) was added after 2 hours and cells were incubated for another 22 hours at 37° C.-5% CO2. After 22 hour incubation, a mixture of anti-IL6 XL665 and anti-IL-6 Cryptate diluted in reconstitution buffer (Catalog #62IL6PEC, Cisbio Inc., Bedford, Mass.) was added to each well. Following incubation for 3 hours at room temperature, Homogeneous Time-Resolved Fluorescence (HTRF) was measured using the Envision (Perkin Elmer, Shelton, Conn.) at 665 nm and […]. The ratio of fluorescence at 665 nm to 620 nm was used as a readout for IL-6 quantification. All samples were processed in duplicate. Readings were normalized to DMSO treated cells and normalized activities were utilized for EC50 calculations. EC50 was determined using software generated by Dotmatics Limited (Windhill Bishops Stortford Herts, UK) using the Levenberg-Marquardt 4 parameter fitting procedure with finite different gradients.

[3] = molecular target: recombinant DYRK1A kinase (Homo sapiens (Human), UniProt Q13627); assay: DYRK1A kinase assay (Ser/Thr 18 peptide Z-lyte, FRET); format: biochemical; settings: 30 μM ATP, one hour at room temperature, read-out: EC50 (μM) (IC50 per method)
From the text: Representative compounds were screened using the assay procedure for DYRK1A kinase activity as described below.
The DYRK1A kinase assay was run using the Ser/Thr 18 peptide Z-lyte assay kit according to manufacturer's instructions (Life Technologies—a Division of Thermo-Fisher). This is a non-radioactive assay using fluorescence resonance energy transfer (FRET) between coumarin and fluorescein to detect kinase activity which is represented as a ratio of coumarin emission/fluorescein emission.
Briefly, recombinant DYRK1A kinase, ATP and Ser/Thr peptide 18 were prepared in 1× Kinase buffer to final concentrations of 0.19 μg/mL, 30 μM, and 4 μM respectively. The mixture was allowed to incubate with the representative compounds for one hour at room temperature. All reactions were performed in duplicate. Unphosphorylated (“0% Control”) and phosphorylated (“100% control”) forms of Ser/Thr 18 served as control reactions. Additionally, an 11-point dose-response curve of Staurosporine (1 uM top) was run to serve as a positive compound control.
After incubation, Development Reagent A was diluted in Development Buffer then added to the reaction and allowed to further incubate for one hour at room temperature. The plate was read at Ex 400 Em 455 to detect the coumarin signal and Ex 400 Em 520 to measure the signal (EnVision Multilabel Plate Reader, PerkinElmer).
The Emission ratio (Em) was calculated as a ratio of the coumarin (C) emission signal (at 445 nm)/Fluorescein (F) emission signal (at 520 nm). The percent phosphorylation was then calculated using the following formula: [1−((Em ratio×F100%)−C100%)/((C0%−C100%)+(Em ratio×(F100%−F0%)))].

[4] = tested on: primary human mesenchymal stem cells (hMSCs); assay: Chondrogenesis induction in hMSCs (nodule count, relative to TGF-β3); format: cell-based; settings: 6 days; for Conc (nM) of 50% TGF-β3 activity / Max. Activity as % TGF-β3 activity: TGF-β3 10 ng/mL positive control; for Conc (nM) of Max. activity: chondrogenic nodules
From the text: Representative compounds were screened using primary human mesenchymal stem cells (hMSCs) to determine their ability to induce chondrogenesis (process by which cartilage is developed).
Human Mesenchymal Stem Cell Culture: Primary human mesenchymal stem cells (hMSCs) were purchased from Lonza (Walkersville, Md.) and expanded in Mesenchymal Stem Cell Growth Media (Lonza). Cells between passage 3 and 6 were used for the experiments.
Number of nodules in each well was normalized to the average of 3 DMSO treated wells on the same plate using Excel (Microsoft Inc.). The normalized averages (fold change over DMSO) of 3 replicate wells for each compound concentration were calculated. Due to solubility limitations of some of the compounds, curve fitting was incomplete leading to inaccurate EC50 determinations.
Using TGF-β3 as a positive control, the concentration of representative compounds required to induce equivalent levels of chondrogenesis is reported. In addition, the maximum activity of each compound and the respective dose that each compound reached maximum chondrogenesis activity is reported.

| EC50 [2] | IC50 [3] | SMILES | EC50 [1] | Conc (nM) of 50% TGF-β3 activity [4] | Max. Activity as % TGF-β3 activity [4] | Conc (nM) of Max. activity [4] | inhibition at 10 µM [2] | inhibition at 10 µM ([1]; read-out: percent inhibition at 10 μM) |
| --- | --- | --- | --- | --- | --- | --- | --- | --- |
| 3820 nM | 0.006 µM | O=C1CCc2cccc(c2)-c2nccc3[nH]c(nc23)-c2n[nH]c3ccc(cc23)-c2cncc(c2)N1 [Compound 2, (Z)-2^1H,3^1H-5-Aza-2(4,2)-imidazo[4,5-c]pyridina-3 (3,5)-indazola-4(3,5)-pyridina-1(1,3)-benzenacyclooctaphan-6-one] | 224 nM |  |  |  |  |  |
| 381 nM | 0.266 µM | O=C1CCc2cccc(c2)-c2cccc3[nH]c(nc23)-c2n[nH]c3ccc(cc23)-c2cncc(c2)N1 [Compound 1] | 24 nM | 200 nM | 497% | 5000 nM |  |  |
| 65 nM | 0.003 µM | c1cc2cc(c1)-c1cncc3[nH]c(nc13)-c1n[nH]c3ccc(cc13)-c1cncc(c1)CNC2 [Compound 8, (Z)-2^3H,3H-6-Aza-2(7,2)-imidazo[4,5-c]pyridina-3(3,5)-indazola-4(3,5)-pyridina-1(1,3)-benzenacycloheptaphane] | 19 nM | 200 nM | 558% | 1700 nM |  |  |
| > 10000 nM | 0.096 µM | O=C1CCc2cccc(c2)-c2cccc3[nH]c(nc23)-c2n[nH]c3cnc(cc23)-c2cncc(c2)N1 [Compound 6, (Z)-2^1H,3^1H-8-Aza-2(5,3)-pyrazolo[3,4-c]pyridina-3(2,4)-benzo[d]imidazola-1(3,5)-pyridina-4(1,3)-benzenacyclooctaphan-7-one] | 29 nM |  |  |  | 9.5% |  |
| 161 nM | 0.068 µM | CN1Cc2cncc(c2)-c2ccc3[nH]nc(c3c2)-c2nc3c(cccc3[nH]2)-c2cccc(c2)C1 [Compound 22, (Z)-6-Methyl-2^1H,3^1H-6-aza-2(5,3),3(2,4)-diindazola-1(3,5)-pyridina-4(1,3)-benzenacycloheptaphane] | 35 nM | 50 nM | 440% | 600 nM |  |  |
| 135 nM | 0.018 µM | c1cc2cc(c1)-c1cccc3[nH]c(nc13)-c1n[nH]c3ccc(cc13)-c1cncc(c1)CNC2 [Compound 10, (Z)-2^1H,3^1H-6-Aza-2(5,3),3(2,4)-diindazola-1(3,5)-pyridina-4(1,3)-benzenacycloheptaphane] | 9980 nM | 50 nM | 607% | 600 nM |  |  |
| > 10000 nM | 0.004 µM | CN1CCCn2cc(nn2)-c2cncc3[nH]c(nc23)-c2n[nH]c3ccc(cc23)-c2cncc(c2)C1 [Compound 45, (1^4Z,2^1Z)-6-Methyl-1 ^1H,2^3H,3^1H-6-aza-2(7,2)-imidazo[4,5-c]pyridina-3(3,5)-indazola-4(3,5)-pyridina-1(4,1)-triazolacyclononaphane] | 1540 nM |  |  |  | 5.9% |  |
| 241 nM | 0.412 µM | CN1Cc2cccc(c2)-c2cccc3[nH]c(nc23)-c2n[nH]c3ccc(cc23)-c2cnn(C)c2C1 [Compound 29] | 77 nM |  |  |  |  |  |
| 612 nM | 0.005 µM | O=C1COc2cccc(c2)-c2cncc3[nH]c(nc23)-c2n[nH]c3ccc(cc23)-c2cncc(c2)N1 [Compound 38, (Z)-2^3H,3^1H-8-Oxa-5-aza-2(7,2)-imidazo[4,5-c]pyridina-3(3,5)-indazola-4(3,5)-pyridina-1(1,3)-benzenacyclooctaphan-6-one] | 38 nM | 100 nM | 185% | 100 nM |  |  |
| > 10000 nM | > 10 µM | O=C1CCc2cccc(c2)-c2cccc3[nH]c(nc23)-c2n[nH]c3ccc(nc23)-c2cncc(c2)N1 [Compound 7, (Z)-2^1H,3^1H-8-Aza-2(5,3)-pyrazolo[4,3-b]pyridina-3 (2,4)-benzo[d]imidazola-1(3,5)-pyridina-4(1,3)-benzenacyclooctaphan-7-one] | 560 nM |  |  |  | 11.6% |  |
| 3010 nM | > 10 µM | c1cc2cc(c1)-c1cccc3[nH]c(nc13)-c1n[nH]c3ccc(cc13)-c1cncc(c1)OCCC2 [Compound 57] | 637 nM |  |  |  |  |  |
| > 10000 nM | 0.709 µM | O=C1CCc2cccc(c2)-c2cccc3[nH]c(nc23)-c2n[nH]c3ncc(cc23)-c2cncc(c2)N1 [Compound 5, (Z)-2^1H,3^1H-8-Aza-2(5,3)-pyrazolo[3,4-b]pyridina-3(2,4)-benzo[d]imidazola-1(3,5)-pyridina-4(1,3)-benzenacyclooctaphan-7-one] | 78 nM |  |  |  | 9.2% |  |
| 414 nM | 0.002 µM | CN1CCCCN(C)c2nccc3[nH]c(nc23)-c2n[nH]c3ccc(cc23)-c2cncc(c2)C1 [Compound 51, (Z)-5,10-Dimethyl-1H,2^1H-5,10-diaza-1(2,4)-imidazo[4,5-c]pyridina-2(3,5)-indazola-3(3,5)-pyridinacyclodecaphane] | 203 nM | 5000 nM | 231% | 5000 nM |  |  |
| > 10000 nM | 0.01 µM | O=C1CCc2cccc(c2)-c2cncc3[nH]c(nc23)-c2n[nH]c3ccc(cc23)-c2cncc(c2)N1 [Compound 3, (Z)-2^3H,3^1H-5-Aza-2(7,2)-imidazo[4,5-c]pyridina-3 (3,5)-indazola-4(3,5)-pyridina-1(1,3)-benzenacyclooctaphan-6-one] | 42 nM | 50 nM | 225% | 100 nM | 43.7% |  |
| 585 nM | 0.111 µM | Cn1ncc2c1CNCc1cccc(c1)-c1cccc3[nH]c(nc13)-c1n[nH]c3ccc-2cc13 [Compound 15, (Z)-Methyl-1^1H,2^1H,3^1H-6-aza-2(5,3),3 (2,4)-diindazola-1 (4,5)-pyrazola-4(1,3)-benzenacycloheptaphane] | 87 nM |  |  |  |  |  |
| > 10000 nM | 0.448 µM | O=C1NC2CCC(CC2)NCc2cncc(c2)-c2ccc3[nH]nc(c3c2)-c2nc3c1cccc3[nH]2 [Compound 64, (6^1s,6^4s,Z)-1^1H,2^1H-5,7-diaza-1 (2,4),2(3,5)-dibenzo[d]imidazola-3(3,5)-pyridina-6(1,4)-cyclohexanacyclooctaphan-8-one] | 10000 nM |  |  |  | 12.7% | 72% |
